Literature values as cited in US12611399B2, “Movement disorders” (Definium Therapeutics US, Inc., priority 2021, dated 2026).

Legend:
Details in all cases: result in words
D1-3 receptors = tested on: D1-3 receptors
5-HT transporter (SERT) = 5-HT transporter (SERT) (Homo sapiens, UniProt P31645)
[1] = tested on: serotonin 5-HT1 receptors
5-HT2A receptor = 5-HT2A receptor (Homo sapiens, UniProt P28223)
D2 receptors = D2 receptors (Homo sapiens, UniProt P14416)
Sequence of D2 receptors (P14416 whole entry): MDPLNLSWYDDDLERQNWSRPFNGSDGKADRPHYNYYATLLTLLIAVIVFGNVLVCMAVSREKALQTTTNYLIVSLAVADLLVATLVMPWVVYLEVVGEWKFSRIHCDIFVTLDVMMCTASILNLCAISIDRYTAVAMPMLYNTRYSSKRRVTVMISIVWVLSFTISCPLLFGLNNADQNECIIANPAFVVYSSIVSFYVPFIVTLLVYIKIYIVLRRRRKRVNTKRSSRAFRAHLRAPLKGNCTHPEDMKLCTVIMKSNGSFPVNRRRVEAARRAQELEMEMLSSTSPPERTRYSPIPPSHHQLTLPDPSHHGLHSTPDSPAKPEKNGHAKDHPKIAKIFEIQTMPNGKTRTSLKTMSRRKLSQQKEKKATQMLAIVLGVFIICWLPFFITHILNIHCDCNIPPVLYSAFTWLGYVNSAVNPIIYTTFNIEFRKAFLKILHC

Sequence of 5-HT transporter (SERT) (P31645 whole entry, species assumed): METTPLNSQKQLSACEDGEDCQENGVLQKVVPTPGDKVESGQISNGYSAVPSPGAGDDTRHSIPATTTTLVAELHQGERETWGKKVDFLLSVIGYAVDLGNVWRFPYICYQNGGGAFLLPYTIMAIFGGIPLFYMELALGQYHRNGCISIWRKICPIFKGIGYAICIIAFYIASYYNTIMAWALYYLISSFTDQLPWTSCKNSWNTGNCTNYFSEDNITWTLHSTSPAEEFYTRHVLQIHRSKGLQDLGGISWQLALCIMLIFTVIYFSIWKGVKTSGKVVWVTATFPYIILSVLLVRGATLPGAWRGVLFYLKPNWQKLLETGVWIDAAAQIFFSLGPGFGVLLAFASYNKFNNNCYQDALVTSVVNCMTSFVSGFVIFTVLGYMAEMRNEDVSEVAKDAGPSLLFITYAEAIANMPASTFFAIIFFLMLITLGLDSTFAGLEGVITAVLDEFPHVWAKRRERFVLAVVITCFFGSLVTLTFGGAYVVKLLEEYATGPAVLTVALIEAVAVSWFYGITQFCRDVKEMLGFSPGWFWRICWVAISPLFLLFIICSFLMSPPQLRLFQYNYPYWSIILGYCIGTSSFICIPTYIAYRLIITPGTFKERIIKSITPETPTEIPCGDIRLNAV
Sequence of 5-HT2A receptor (P28223 whole entry): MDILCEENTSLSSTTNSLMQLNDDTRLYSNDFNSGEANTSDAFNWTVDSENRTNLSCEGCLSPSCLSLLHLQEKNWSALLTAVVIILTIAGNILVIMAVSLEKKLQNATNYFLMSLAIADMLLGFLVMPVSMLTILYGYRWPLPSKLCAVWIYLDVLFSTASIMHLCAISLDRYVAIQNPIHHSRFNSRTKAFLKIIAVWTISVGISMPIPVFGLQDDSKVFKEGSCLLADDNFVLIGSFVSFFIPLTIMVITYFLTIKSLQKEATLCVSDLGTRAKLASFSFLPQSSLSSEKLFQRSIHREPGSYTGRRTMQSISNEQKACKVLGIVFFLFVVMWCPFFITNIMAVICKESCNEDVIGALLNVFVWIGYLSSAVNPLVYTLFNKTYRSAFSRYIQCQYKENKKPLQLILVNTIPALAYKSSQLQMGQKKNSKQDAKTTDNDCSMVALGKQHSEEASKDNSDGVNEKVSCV

Structure (SMILES)	stimulation of D1-3 receptors (D1-3 receptors)	interaction with the 5-HT transporter (SERT) (5-HT transporter (SERT))	agonist potency at serotonin 5-HT1 receptors [1]	stimulation of the 5-HT2A receptor (5-HT2A receptor)	affinity for D2 receptors (D2 receptors)
CCN(CC)C(=O)[C@@H]1C=C2c3cccc4[nH]cc(c34)C[C@H]2N(C)C1 [LSD, lysergic acid diethylamide]	stimulates	does not interact	potent agoinsts	potently stimulates	
COc1cc(CCN)cc(OC)c1OC [mescaline]			low potency		no affinity
CN(C)CCc1c[nH]c2cccc(O)c12 [psilocin]		inhibits	potent agoinsts		
